Experimental data from patent US20250340510A1, “Substituted Phenylbenzenesulfonamide Derivatives and Uses Thereof” (Nine Square Therapeutics Corporation, priority 2022, published 2025).
pEC50: −log10 of the molar value.

Target: TRPML1 (Homo sapiens, UniProt Q9GZU1)
Test: Calcium flux in HEK293 overexpressing TRPML1 plasma membrane variant (FLIPR, Calcium 6 dye)
Format: cell-based
Conditions: HEK293/TRPML1-PM clone A5 cells; 4-parameter logistic fit; read-out: TRPML1 calcium flux (FLIPR) dose response: EC50
Source text: Example B1. Calcium Flux in HEK293 Overexpressing TRPML1 Plasma Membrane Variant—Calcium 6 Dye
Cells: HEK293/TRPML1-PM clone A5, clonal cell line containing mutant TRPML1 (both N- and C-terminal dileucine targeting motifs deleted) that localizes to the plasma membrane
Plates: Perkin Elmer Viewplate cat. #6007460, black optically clear, tissue culture treated 384-well plate
Calcium dye: Molecular Devices FLIPR Calcium 6 Assay Kit, cat. #R8190 or Fluo-4 Direct from Thermo Fisher, cat. #F10471
Tips: Molecular Devices 384-well FLIPR Tetra black tips, cat. #9000-0764 Example B1.2 Method
HEK293/TRPML1-PM clone A5 cells were trypsinized from flasks, counted, then diluted in media to 15,000 cells per 25 μL, and seeded into a black, 384-well viewplate, and cultured overnight.
One vial of calcium 6 dye was diluted with 10 mL of assay buffer (HBSS+20 mM HEPES pH 7.4) and 25 μL of the dilution was added per well to the cells.
After incubating for 2 hours at 37° C., the plate was moved to the FLIPR in the read position.
The compounds were diluted in EMEM with 0.125% FBS to 5× concentration and loaded in a 384-well plate according to the desired plate map for the assay, including DMSO alone and carbachol controls, then the plate was moved to the FLIPR in the source 2 position.
A box of tips was placed in the source 1 position within the FLIPR to complete the assay set up.
Once the run was started, an initial baseline fluorescent measurement was performed for 10 seconds (470-495 nm excitation and 515-575 nm emission) prior to adding the compounds.
12.5 μL of 5× test compound, DMSO alone, or carbachol were added via the FLIPR and real-time fluorescence measurements were performed for an additional 170 seconds with 1 read per second.
The data was normalized to baseline by calculating maximum fluorescence minus minimum fluorescence and plotted as response (fold) over the baseline versus log ([…] concentration). The EC50 was determined using a 4-parameter logistic curve fit in Graphpad Prism 9.

TRPML1, sequence (Q9GZU1 17-572 limits assumed): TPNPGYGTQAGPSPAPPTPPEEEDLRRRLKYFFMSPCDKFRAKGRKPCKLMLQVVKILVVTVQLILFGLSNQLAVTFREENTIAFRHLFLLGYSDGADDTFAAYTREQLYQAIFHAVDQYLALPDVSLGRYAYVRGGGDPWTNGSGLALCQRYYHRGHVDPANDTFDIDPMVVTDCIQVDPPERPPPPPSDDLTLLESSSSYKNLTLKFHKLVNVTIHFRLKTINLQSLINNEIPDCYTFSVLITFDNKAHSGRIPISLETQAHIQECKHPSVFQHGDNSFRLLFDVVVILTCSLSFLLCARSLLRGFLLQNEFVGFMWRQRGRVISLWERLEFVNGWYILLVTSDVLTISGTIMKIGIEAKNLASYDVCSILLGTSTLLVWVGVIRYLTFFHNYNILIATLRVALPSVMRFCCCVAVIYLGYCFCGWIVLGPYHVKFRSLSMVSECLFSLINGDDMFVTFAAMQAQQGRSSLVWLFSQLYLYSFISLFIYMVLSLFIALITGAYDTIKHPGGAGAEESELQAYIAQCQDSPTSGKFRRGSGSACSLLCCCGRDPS

Compound	pEC50
Cc1cnccc1CN(C)c1ccccc1NS(=O)(=O)c1ccc(S(=O)(=O)N(C)C)cc1 [Compound 58, N1,N1-dimethyl-N4-(2-(methyl((3-methylpyridin-4-yl)methyl)amino)phenyl)benzene-1,4-disulfonamide]	5.16
CN(c1ccc(Cl)cc1NS(=O)(=O)c1ccc(S(=O)(=O)N(C)C)cc1)C1CCCCC1 [Compound 1, N1-(5-chloro-2-(cyclohexyl(methyl)amino)phenyl)-N4,N4-dimethylbenzene-1,4-disulfonamide]	5.91
CN(c1ccccc1NS(=O)(=O)c1ccc(S(=O)(=O)N(C)C)cc1)C1CCOCC1 [Compound 19, N1,N1-dimethyl-N4-(2-(methyl(tetrahydro-2H-pyran-4-yl)amino)phenyl)benzene-1,4-disulfonamide]	5.69
CN(CC1COC1)c1ccccc1NS(=O)(=O)c1ccc(S(=O)(=O)N(C)C)cc1 [Compound 47, N1,N1-dimethyl-N4-(2-(methyl(oxetan-3-ylmethyl)amino)phenyl)benzene-1,4-disulfonamide]	< 5.00
CN(c1cccc(F)c1NS(=O)(=O)c1ccc(S(=O)(=O)N(C)C)cc1)C1CCCCC1 [Compound 3, N1-(2-(cyclohexyl(methyl)amino)-6-fluorophenyl)-N4,N4-dimethylbenzene-1,4-disulfonamide]	5.32
CN(CC1CCOC1)c1ccccc1NS(=O)(=O)c1ccc(S(=O)(=O)N(C)C)cc1 (centres unmarked) [Compound 112, N1,N1-dimethyl-N4-(2-(methyl((tetrahydrofuran-3-yl)methyl)amino)phenyl)benzene-1,4-disulfonamide]	5.43
CN(c1ccccc1NS(=O)(=O)c1ccc(S(=O)(=O)N(C)C)cc1)C1CCNCC1 [Compound 22, N1,N1-dimethyl-N4-(2-(methyl(piperidin-4-yl)amino)phenyl)benzene-1,4-disulfonamide]	< 5.00
COCC1(C)CCC(N(C)c2ccccc2NS(=O)(=O)c2ccc(S(=O)(=O)N(C)C)cc2)CC1 (centres unmarked) [Compound 42, N1-(2-((4-(methoxymethyl)-4-methylcyclohexyl)(methyl)amino)phenyl)-N4,N4-dimethylbenzene-1,4-disulfonamide]	6.09
CN(CCc1nccs1)c1ccccc1NS(=O)(=O)c1ccc(S(=O)(=O)N(C)C)cc1 [Compound 90, N1,N1-dimethyl-N4-(2-(methyl(2-(thiazol-2-yl)ethyl)amino)phenyl)benzene-1,4-disulfonamide]	5.85
CN(c1cccc(C(F)(F)F)c1NS(=O)(=O)c1ccc(S(=O)(=O)N(C)C)cc1)C1CCCCC1 [Compound 92, N1-(2-(cyclohexyl(methyl)amino)-6-(trifluoromethyl)phenyl)-N4,N4-dimethylbenzene-1,4-disulfonamide]	5.13
CCn1cnc(CN(C)c2ccccc2NS(=O)(=O)c2ccc(S(=O)(=O)N(C)C)cc2)c1 [Compound 44, N1-(2-(((1-ethyl-1H-imidazol-4-yl)methyl)(methyl)amino)phenyl)-N4,N4-dimethylbenzene-1,4-disulfonamide]	< 5.00
CN(CCC1COC1)c1ccccc1NS(=O)(=O)c1ccc(S(=O)(=O)N(C)C)cc1 [Compound 62, N1,N1-dimethyl-N4-(2-(methyl(2-(oxetan-3-yl)ethyl)amino)phenyl)benzene-1,4-disulfonamide]	< 4.52
CN(Cc1cncn1C)c1ccccc1NS(=O)(=O)c1ccc(S(=O)(=O)N(C)C)cc1 [Compound 56, N1,N1-dimethyl-N4-(2-(methyl((1-methyl-1H-imidazol-5-yl)methyl)amino)phenyl)benzene-1,4-disulfonamide]	< 5.00
CN(Cc1ccn(C2CC2)n1)c1ccccc1NS(=O)(=O)c1ccc(S(=O)(=O)N(C)C)cc1 [Compound 94, N1-(2-(((1-cyclopropyl-1H-pyrazol-3-yl)methyl)(methyl)amino)phenyl)-N4,N4-dimethylbenzene-1,4-disulfonamide]	5.60
CN1CCC(N(C)c2ccccc2NS(=O)(=O)c2ccc(S(=O)(=O)N(C)C)cc2)CC1 [Compound 21, N1,N1-dimethyl-N4-(2-(methyl(1-methylpiperidin-4-yl)amino)phenyl)benzene-1,4-disulfonamide]	< 5.00
CCN(CC)c1ccccc1NS(=O)(=O)c1ccc(S(=O)(=O)N(C)C)cc1 [Compound 82, N1-(2-(diethylamino)phenyl)-N4,N4-dimethylbenzene-1,4-disulfonamide]	5.42
CN(Cc1ccccn1)c1ccccc1NS(=O)(=O)c1ccc(S(=O)(=O)N(C)C)cc1 [Compound 46, N1,N1-dimethyl-N4-(2-(methyl(pyridin-2-ylmethyl)amino)phenyl)benzene-1,4-disulfonamide]	5.59
CN(c1ccc(F)cc1NS(=O)(=O)c1ccc(S(=O)(=O)N(C)C)cc1)C1CCCCC1 [Compound 53, N1-(2-(cyclohexyl(methyl)amino)-5-fluorophenyl)-N4,N4-dimethylbenzene-1,4-disulfonamide]	5.97

Second part, the compound after the results:

pEC50	Compound
5.40	CN(CCC1CCOCC1)c1ccccc1NS(=O)(=O)c1ccc(S(=O)(=O)N(C)C)cc1 [Compound 114, N1,N1-dimethyl-N4-(2-(methyl(2-(tetrahydro-2H-pyran-4-yl)ethyl)amino)phenyl)benzene-1,4-disulfonamide]
5.46	CCN(C)c1ccccc1NS(=O)(=O)c1ccc(S(=O)(=O)N(C)C)cc1 [Compound 9, N1-(2-(ethyl(methyl)amino)phenyl)-N4,N4-dimethylbenzene-1,4-disulfonamide]
< 5.00	CCOCCCN(C)c1ccccc1NS(=O)(=O)c1ccc(S(=O)(=O)N(C)C)cc1 [Compound 113, N1-(2-((3-ethoxypropyl)(methyl)amino)phenyl)-N4,N4-dimethylbenzene-1,4-disulfonamide]
5.05	CC(C)n1cnc(CN(C)c2ccccc2NS(=O)(=O)c2ccc(S(=O)(=O)N(C)C)cc2)c1 [Compound 31, N1-(2-(((1-isopropyl-1H-imidazol-4-yl)methyl)(methyl)amino)phenyl)-N4,N4-dimethylbenzene-1,4-disulfonamide]
6.12	CN(c1ccccc1NS(=O)(=O)c1ccc(S(=O)(=O)N(C)C)cc1)C1CCC1 [Compound 37, N1-(2-(cyclobutyl(methyl)amino)phenyl)-N4,N4-dimethylbenzene-1,4-disulfonamide]
5.61	CN(Cc1cnn(C2CC2)c1)c1ccccc1NS(=O)(=O)c1ccc(S(=O)(=O)N(C)C)cc1 [Compound 5, N1-(2-(((1-cyclopropyl-1H-pyrazol-4-yl)methyl)(methyl)amino)phenyl)-N4,N4-dimethylbenzene-1,4-disulfonamide]
5.52	CN(c1cc(Cl)ccc1NS(=O)(=O)c1ccc(S(=O)(=O)N(C)C)cc1)C1CCCCC1 [Compound 2, N1-(4-chloro-2-(cyclohexyl(methyl)amino)phenyl)-N4,N4-dimethylbenzene-1,4-disulfonamide]
< 5.00	CN(C)CCN(C)c1ccccc1NS(=O)(=O)c1ccc(S(=O)(=O)N(C)C)cc1 [Compound 54, N1-(2-((2-(dimethylamino)ethyl)(methyl)amino)phenyl)-N4,N4-dimethylbenzene-1,4-disulfonamide]
4.96	CN(C)S(=O)(=O)c1ccc(S(=O)(=O)Nc2ccccc2N(C(=O)C(F)(F)F)C2CCCCC2)cc1 [Compound 63, N-cyclohexyl-N-(2-((4-(N,N-dimethylsulfamoyl)phenyl)sulfonamido)phenyl)-2,2,2-trifluoroacetadmie]
5.24	CN(c1cccc(Cl)c1NS(=O)(=O)c1ccc(S(=O)(=O)N(C)C)cc1)C1CCCCC1 [Compound 52, N1-(2-chloro-6-(cyclohexyl(methyl)amino)phenyl)-N4,N4-dimethylbenzene-1,4-disulfonamide]
6.48	Cc1ccc(NS(=O)(=O)c2ccc(S(=O)(=O)N(C)C)cc2)c(N(C)C2CCCCC2)c1 [Compound 35, N1-(2-(cyclohexyl(methyl)amino)-4-methylphenyl)-N4,N4-dimethylbenzene-1,4-disulfonamide]
6.38	COCC1(C)CCC(CN(C)c2ccccc2NS(=O)(=O)c2ccc(S(=O)(=O)N(C)C)cc2)CC1 (centres unmarked) [Compound 39, N1-(2-(((4-(methoxymethyl)-4-methylcyclohexyl)methyl)(methyl)amino)phenyl)-N4,N4-dimethylbenzene-1,4-disulfonamide]
5.52	CN(Cc1cnsc1)c1ccccc1NS(=O)(=O)c1ccc(S(=O)(=O)N(C)C)cc1 [Compound 101, N1-(2-((isothiazol-4-ylmethyl)(methyl)amino)phenyl)-N4,N4-dimethylbenzene-1,4-disulfonamide]
5.23	Cc1cnn(C)c1CN(C)c1ccccc1NS(=O)(=O)c1ccc(S(=O)(=O)N(C)C)cc1 [Compound 80, N1-(2-(((1,4-dimethyl-1H-pyrazol-5-yl)methyl)(methyl)amino)phenyl)-N4,N4-dimethylbenzene-1,4-disulfonamide]
